IC50 data for twelve compounds are collected here from patent US9920032B2, “Heterocyclic compounds useful as pim kinase inhibitors” (Incyte Corporation, priority 2015, dated 2018).

Each structure is given as a SMILES string. Some results are limits rather than exact numbers.

Holding throughout (type): biochemical
The target of one test is Pim-1 (Homo sapiens (Human), UniProt P11309). The test can be described thus: Pim-1 kinase assay. The following applies: 1 mM ATP; read-out: PIM1 IC50. The method, boiled down:
(§1)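 Enzyme at 2.5 pM (Pim-1) or 1.25 pM (Pim-3) reacted 1 h at 25° C with 1 mM ATP and 0.05 μM biotinylated BAD peptide, pH 7.5. Phospho-Ser112 BAD detected by antibody/Protein-A acceptor and streptavidin donor bead proximity signal after EDTA quench and 1 h dark incubation.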

For another test, the target named is Pim-2 (Homo sapiens (Human), UniProt Q9P1W9). Briefly: Pim-2 kinase assay. The following applies: 1 mM ATP; read-out: PIM2 IC50. The method, boiled down: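 TR-FRET assay with 1 nM enzyme, 0.05 μM fluorescein-CREBtide and 1 mM ATP in Tris pH 7.5 buffer with MgCl2, DTT, BSA and Tween-20, run 2 h at 25° C. Stopped with EDTA and Tb-labelled anti-CREB pSer133 antibody, then read after 30 min at room temperature.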
Chain of Pim-2 (Q9P1W9 whole entry): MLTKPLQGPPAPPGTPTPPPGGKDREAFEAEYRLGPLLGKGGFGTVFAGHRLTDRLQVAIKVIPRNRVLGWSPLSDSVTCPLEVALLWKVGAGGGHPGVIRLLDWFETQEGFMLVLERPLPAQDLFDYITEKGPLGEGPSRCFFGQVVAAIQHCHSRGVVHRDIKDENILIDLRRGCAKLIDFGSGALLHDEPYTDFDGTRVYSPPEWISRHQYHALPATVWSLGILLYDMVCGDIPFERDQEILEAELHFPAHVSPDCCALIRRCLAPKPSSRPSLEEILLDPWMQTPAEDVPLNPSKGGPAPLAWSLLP

A further test addresses Pim-3 (Homo sapiens (Human), UniProt Q86V86). Briefly: Pim-3 kinase assay. The conditions noted are these: 1 mM ATP; read-out: PIM3 IC50. Put shortly: as §1

Chain of Pim-1 (P11309 whole entry): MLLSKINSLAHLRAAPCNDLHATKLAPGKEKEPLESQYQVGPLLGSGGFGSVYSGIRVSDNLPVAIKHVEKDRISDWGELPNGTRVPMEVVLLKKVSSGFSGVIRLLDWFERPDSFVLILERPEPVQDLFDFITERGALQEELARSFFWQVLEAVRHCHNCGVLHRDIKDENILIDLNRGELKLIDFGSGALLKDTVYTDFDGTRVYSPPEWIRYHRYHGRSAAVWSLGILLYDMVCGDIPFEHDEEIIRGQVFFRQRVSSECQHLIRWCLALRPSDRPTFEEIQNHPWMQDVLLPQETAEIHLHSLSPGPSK

With `CC1CN(c2cnc3c(C(=O)Nc4cnccc4[C@@H]4C[C@H](C)C[C@H](N)C4)ccc(F)c3c2)C(C)CO1` (stereo partly drawn) [Example 35, N-(4-((1R,3S,5S)-3-Amino-5-methylcyclohexyl)pyridin-3-yl)-3-(2,5-dimethylmorpholino)-5-fluoroquinoline-8-carboxamide], the 50% inhibitory concentration (IC50) at Pim-1 is at most 10 nM; at Pim-2 it was 1000 to 10000 nM; on Pim-3 it was 10 to 50 nM.
For the compound `COC[C@@H]1CCCN1c1cnc2c(C(=O)Nc3cnccc3[C@@H]3C[C@H](C)C[C@H](N)C3)ccc(F)c2c1` [Example 48, N-(4-((1R,3S,5S)-3-Amino-5-methylcyclohexyl)pyridin-3-yl)-5-fluoro-3-((S)-2-(methoxymethyl)pyrrolidin-1-yl)quinoline-8-carboxamide], the figures for the IC50 at Pim-1, at Pim-2 and at Pim-3 were at most 10 nM, 100 to 1000 nM and at most 10 nM, respectively.
Regarding `CCn1cc(-c2cnc3c(C(=O)Nc4cnccc4[C@@H]4C[C@H](C)C[C@H](N)C4)ccc(F)c3c2)cn1` [Example 62, N-(4-((1R,3S,5S)-3-Amino-5-methylcyclohexyl)pyridin-3-yl)-3-(1-ethyl-1H-pyrazol-4-yl)-5-fluoroquinoline-8-carboxamide], the figures for the IC50 on Pim-1, at Pim-2 and on Pim-3 were at most 10 nM, 100 to 1000 nM and at most 10 nM, respectively.
As for `C[C@@H]1C[C@H](N)C[C@H](c2ccncc2NC(=O)c2ccc(F)c3cc(N(C)C4CCCOC4)cnc23)C1` (stereo partly drawn) [Example 151], the IC50 at Pim-1 is at most 10 nM; at Pim-2, at most 100 nM; on Pim-3, at most 10 nM.
`CO[C@@H]1C[C@@H](C)N(c2cnc3c(C(=O)Nc4cnccc4[C@@H]4C[C@H](C)C[C@H](N)C4)ccc(F)c3c2)C1` [Example 156]: the IC50 on Pim-1 is at most 10 nM; at Pim-2, at most 100 nM; at Pim-3 it was at most 10 nM.
In the case of `C[C@@H]1C[C@H](N)C[C@H](c2ccncc2NC(=O)c2ccc(F)c3cc(N(C)c4ccc5nccn5c4)cnc23)C1` [Example 153], the IC50 on Pim-1 was at most 10 nM; on Pim-2, 100 to 1000 nM; at Pim-3, at most 10 nM.
With `COC1CCCN(c2cnc3c(C(=O)Nc4cnccc4[C@@H]4C[C@H](C)C[C@H](N)C4)ccc(F)c3c2)C1` (stereo in doubt) [Example 12, N-{4-[(1R,3S,5S)-3-Amino-5-methylcyclohexyl]pyridin-3-yl}-5-fluoro-3-[(3S)-3-methoxypiperidin-1-yl]quinoline-8-carboxamide], the 50% inhibitory concentration (IC50) was at most 10 nM on Pim-1, 100 to 1000 nM at Pim-2 and at most 10 nM at Pim-3.
Take `C[C@@H]1C[C@H](N)C[C@H](c2ccncc2NC(=O)c2ccc(F)c3cc(N4CCCN(S(C)(=O)=O)CC4)cnc23)C1` [Example 124, N-(4-((1R,3S,5S)-3-Amino-5-methylcyclohexyl)pyridin-3-yl)-5-fluoro-3-(4-(methylsulfonyl)-1,4-diazepan-1-yl)quinoline-8-carboxamide]: the values for the IC50 at Pim-1, on Pim-2 and on Pim-3 were at most 10 nM, at most 100 nM and at most 10 nM, respectively.
Consider `CO[C@H]1CCN(c2cnc3c(C(=O)Nc4cnccc4[C@@H]4C[C@H](C)C[C@H](N)C4)ccc(F)c3c2)[C@H](C)C1` [Example 159, N-(4-((1R,3S,5S)-3-Amino-5-methylcyclohexyl)pyridin-3-yl)-5-fluoro-3-((2R,4S)-4-methoxy-2-methylpiperidin-1-yl)quinoline-8-carboxamide], for which the concentration for half-maximal inhibition (IC50) was at most 10 nM at Pim-1, at most 100 nM on Pim-2 and at most 10 nM on Pim-3.
As to `C[C@@H]1C[C@H](N)C[C@H](c2ccncc2NC(=O)c2cccc3cc(N4CCOC[C@H]4C)cnc23)C1` [Example 67, N-(4-((1R,3S,5S)-3-Amino-5-methylcyclohexyl)pyridin-3-yl)-3-((R)-3-methylmorpholino)quinoline-8-carboxamide], the IC50 is at most 10 nM at Pim-1, at most 100 nM at Pim-2 and at most 10 nM on Pim-3.
Turning to `C[C@@H]1C[C@H](N)C[C@H](c2ccncc2NC(=O)c2ccc(F)c3cc(N4CCC[C@H]4C)nnc23)C1` [Example 95, N-{4-[(1R,3S,5S)-3-Amino-5-methylcyclohexyl]pyridin-3-yl}-5-fluoro-3-[(2R)-2-methylpyrrolidin-1-yl]cinnoline-8-carboxamide], the IC50 at Pim-1 was at most 10 nM; at Pim-2 it was at most 100 nM; on Pim-3 it was at most 10 nM.
Turning to `CCOC(=O)N1CCN(c2cnc3c(C(=O)Nc4cnccc4[C@@H]4C[C@H](C)C[C@H](N)C4)ccc(F)c3c2)CC1` [Example 168, Ethyl 4-(8-(4-((1R,3S,5S)-3-amino-5-methylcyclohexyl)pyridin-3-ylcarbamoyl)-5-fluoroquinolin-3-yl)piperazine-1-carboxylate], the values for the concentration for half-maximal inhibition (IC50) at Pim-1, on Pim-2 and at Pim-3 were at most 10 nM, 100 to 1000 nM and at most 10 nM, respectively.

The term IC50 denotes the midpoint of a concentration-inhibition curve.
